Measured values published in patent publication US10098902B2, “Arginase inhibitors as therapeutics” (Mars, Incorporated, priority 2010, dated 2018).

Columns and labels:
human arginase I (ARG I) = human arginase I (ARG I) (Homo sapiens (Human), UniProt P05089); assay: Inhibition of arginase I, spectrophotometric urea assay at 530 nm; format: biochemical; conditions: potency rank 1-5; pH 7.4, 37° C., 60 minutes
Procedure: (§1) Inhibition of arginase I (ARG I) and arginase II (ARG II) by Formula I or Formula II compounds is followed spectrophotometrically at 530 nm. The compound to be tested was dissolved in DMSO at an initial concentration 50-fold greater than its final concentration in the cuvette. 10 μl of the stock solution was diluted in 90 μl of the assay buffer that comprises 0.1M sodium phosphate buffer containing 130 mM NaCl, pH 7.4, to which is added ovalbumin (OVA) at a concentration of 1 mg/ml. Solutions of arginase I and II were prepared in 100 mM sodium phosphate buffer, pH 7.4 containing 1 mg/ml of OVA to give an arginase stock solution at a final concentration of 100 ng/ml.
(§2) To each well of a 96-well microtiter plate was added 40 μl of enzyme, 10 μl of an inventive compound and 10 μl of enzyme substrate (L-arginine+manganese sulfate). For wells that were used as positive controls, only the enzyme and its substrate were added, while wells used as negative controls contained only manganese sulfate.
(§3) After incubating the microtiter plate at 37° C. for 60 minutes, 150 μl of a urea reagent obtained by combining equal proportions (1:1) of reagents A and B is added to each well of the microtiter plate to stop the reaction. The urea reagent is made just before use by combining Reagent A (10 mM o-phthaldialdehyde, and 0.4% polyoxyethylene (23) lauryl ether (w/v) in 1.8 M sulfuric acid) with Reagent B (1.3 mM primaquine diphosphate, 0.4% polyoxyethylene (23) lauryl ether (w/v), 130 mM boric acid in 3.6 mM sulfuric acid). After quenching the reaction mixture, the microtiter plate is allowed to stand for an additional 10 minutes at room temperature to allow the color to develop. The inhibition of arginase was computed by measuring the optical density (OD) of the reaction mixture at 530 nm and normalizing the OD value to percent inhibition observed in the control. The normalized OD is then used to generate a dose-response curve by plotting the normalized OD values against log [concentration] and using regression analysis to compute the IC50 values.

[1] = target: human arginase II (ARG II) (Homo sapiens (Human), UniProt P78540); assay: Inhibition of arginase II, spectrophotometric urea assay at 530 nm; format: biochemical; conditions: potency rank 1-5; pH 7.4, 37° C., 60 minutes
Chain of human arginase II (ARG II) (P78540 23-354): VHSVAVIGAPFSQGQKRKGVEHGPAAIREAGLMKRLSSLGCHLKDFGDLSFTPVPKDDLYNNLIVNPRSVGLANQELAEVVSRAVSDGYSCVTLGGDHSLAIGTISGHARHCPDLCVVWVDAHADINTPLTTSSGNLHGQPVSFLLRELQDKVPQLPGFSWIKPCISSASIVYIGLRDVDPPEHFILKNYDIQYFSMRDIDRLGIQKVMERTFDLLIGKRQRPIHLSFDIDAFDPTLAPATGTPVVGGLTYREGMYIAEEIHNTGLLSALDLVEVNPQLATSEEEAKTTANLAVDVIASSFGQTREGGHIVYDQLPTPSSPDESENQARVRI
Procedure: as §1, §2, §3

Chain of human arginase I (ARG I) (P05089 whole entry): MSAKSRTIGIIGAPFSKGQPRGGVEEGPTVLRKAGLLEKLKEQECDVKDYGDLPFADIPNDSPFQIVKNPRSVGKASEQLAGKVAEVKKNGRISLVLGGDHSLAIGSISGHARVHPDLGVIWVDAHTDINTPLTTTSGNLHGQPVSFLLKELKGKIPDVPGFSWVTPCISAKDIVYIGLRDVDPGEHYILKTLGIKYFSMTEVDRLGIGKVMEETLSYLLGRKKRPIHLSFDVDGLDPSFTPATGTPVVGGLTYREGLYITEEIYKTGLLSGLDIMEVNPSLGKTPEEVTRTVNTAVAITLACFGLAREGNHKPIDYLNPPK

Compound	IC50 (human arginase I (ARG I))	IC50 [1]
N[C@@]1(C(=O)O)CCNC[C@@H]1CCCB(O)O [Example 7, (3S,4S)-4-amino-3-(3-boronopropyl)piperidine-4-carboxylic acid]	0.251 to 1 µM	0.251 to 1 µM
N[C@@]1(C(=O)O)CCNC[C@H]1CCCB(O)O [Example 6, (3R,4S)-4-amino-3-(3-boronopropyl)piperidine-4-carboxylic acid]	0.251 to 1 µM	2 to 5 µM
N[C@@]1(C(=O)O)CN(C2CCNC2)C[C@@H]1CCCB(O)O (stereo partly drawn) [Example 27, (3R,4S)-3-amino-4-(3-boronopropyl)-1,3′-bipyrrolidine-3-carboxylic acid]	0.0001 to 0.25 µM	0.0001 to 0.25 µM
N[C@@]1(C(=O)O)CN(C2CCNCC2)C[C@@H]1CCCB(O)O [Example 26, (3R,4S)-3-amino-4-(3-boronopropyl)-1-(piperidin-4-yl)pyrrolidine-3-carboxylic acid]	0.251 to 1 µM	0.251 to 1 µM
N[C@@]1(C(=O)O)CN(C(=O)Nc2ccc(F)cc2)C[C@@H]1CCCB(O)O (racemic) [Example 48, (3R,4S)-3-amino-4-(3-boronopropyl)-1-(4-fluorophenylcarbamoyl)pyrrolidine-3-carboxylic acid]	0.251 to 1 µM	0.251 to 1 µM
N[C@@]1(C(=O)O)CN(C2CCCNC2)C[C@@H]1CCCB(O)O (stereo partly drawn) [Example 28, (3R,4S)-3-amino-4-(3-boronopropyl)-1-(piperidin-3-yl)pyrrolidine-3-carboxylic acid]	0.0001 to 0.25 µM	0.251 to 1 µM
CN(C)CC(C)(C)CN1C[C@H](CCCB(O)O)[C@](N)(C(=O)O)C1 [Example 17, (3R,4S)-3-amino-4-(3-boronopropyl)-1-(3-(dimethylamino)-2,2-dimethylpropyl)pyrrolidine-3-carboxylic acid]	2 to 5 µM	
N[C@@]1(C(=O)O)CCC[C@@H]1CCCB(O)O (racemic) [Example 1, (1S,2S)-1-amino-2-(3-boronopropyl)cyclopentanecarboxylic acid]	0.251 to 1 µM	0.251 to 1 µM
NC1(C(=O)O)CCSC1CCCB(O)O (stereo not drawn) [Example 5, 3-amino-2-(3-boronopropyl)tetrahydrothiophene-3-carboxylic acid]	1 to 2 µM	2 to 5 µM
NCCN1C[C@H](CCCB(O)O)[C@](N)(C(=O)O)C1 [Example 24, (3R,4S)-3-amino-1-(2-aminoethyl)-4-(3-boronopropyl)pyrrolidine-3-carboxylic acid]	0.0001 to 0.25 µM	0.0001 to 0.25 µM
N[C@@]1(C(=O)O)CN(CC2CCCCN2)C[C@@H]1CCCB(O)O (stereo partly drawn) [Example 21, (3R,4S)-3-amino-4-(3-boronopropyl)-1-(piperidin-2-ylmethyl)pyrrolidine-3-carboxylic acid]	0.0001 to 0.25 µM	0.0001 to 0.25 µM
N[C@@]1(C(=O)O)CCN[C@@H]1CCCB(O)O [Example 10, (2R,3S)-3-amino-2-(3-boronopropyl)pyrrolidine-3-carboxylic acid]	> 5 µM	> 5 µM
N[C@@]1(C(=O)O)CN(c2cncc(C(=O)O)c2)C[C@@H]1CCCB(O)O [Example 25, 5-((3R,4S)-3-amino-4-(3-boronopropyl)-3-carboxypyrrolidin-1-yl)nicotinic acid]	0.251 to 1 µM	0.251 to 1 µM
CN[C@@]1(C(=O)O)CNC[C@@H]1CCCB(O)O [Example 35, (3R,4S)-4-(3-boronopropyl)-3-(methylamino)pyrrolidine-3-carboxylic acid]	0.251 to 1 µM	0.251 to 1 µM
N[C@@]1(C(=O)O)CN(CC2CCCNC2)C[C@@H]1CCCB(O)O (stereo partly drawn) [Example 18, (3R,4S)-3-amino-4-(3-boronopropyl)-1-(piperidin-3-ylmethyl)pyrrolidine-3-carboxylic acid]	0.0001 to 0.25 µM	0.251 to 1 µM
NC1CCCC1N1C[C@H](CCCB(O)O)[C@](N)(C(=O)O)C1 (stereo partly drawn) [Example 14, (3R,4S)-3-amino-1-(2-aminocyclopentyl)-4-(3-boronopropyl)pyrrolidine-3-carboxylic acid]	0.0001 to 0.25 µM	0.0001 to 0.25 µM
Cc1ccncc1N1C[C@H](CCCB(O)O)[C@](N)(C(=O)O)C1 [Example 32, (3R,4S)-3-amino-4-(3-boronopropyl)-1-(4-methylpyridin-3-yl)pyrrolidine-3-carboxylic acid]	1 to 2 µM	1 to 2 µM
N[C@@]1(C(=O)O)CN(c2ncnc3nc[nH]c23)C[C@@H]1CCCB(O)O [Example 23, (3R,4S)-3-amino-4-(3-boronopropyl)-1-(7H-purin-6-yl)pyrrolidine-3-carboxylic acid]	0.251 to 1 µM	1 to 2 µM

Now from value to compound:

IC50 (human arginase I (ARG I))	IC50 [1]	Compound
1 to 2 µM	1 to 2 µM	CNC(Cc1ccccc1)C(=O)N1C[C@H](CCCB(O)O)[C@](N)(C(=O)O)C1 (stereo partly drawn) [Example 58, (3R,4S)-3-amino-4-(3-boronopropyl)-1-(2-(methylamino)-3-phenylpropanoyl)pyrrolidine-3-carboxylic acid]
0.0001 to 0.25 µM	0.0001 to 0.25 µM	N[C@@]1(C(=O)O)CN(CC2Cc3cc(Cl)ccc3CN2)C[C@@H]1CCCB(O)O (stereo partly drawn) [Example 51, (3R,4S)-3-amino-4-(3-boronopropyl)-1-((6-chloro-1,2,3,4-tetrahydroisoquinolin-3-yl)methyl)pyrrolidine-3-carboxylic acid]
0.0001 to 0.25 µM	0.0001 to 0.25 µM	N[C@@]1(C(=O)O)CN(C[C@@H]2Cc3ccccc3CN2)C[C@@H]1CCCB(O)O [Example 39, (3R,4S)-3-amino-4-(3-boronopropyl)-1-(((S)-1,2,3,4-tetrahydroisoquinolin-3-yl)methyl)pyrrolidine-3-carboxylic acid]
0.251 to 1 µM	0.251 to 1 µM	N[C@@]1(C(=O)O)CN(C(=O)Cc2ccc(Cl)cc2)C[C@@H]1CCCB(O)O [Example 45, (3R,4S)-3-amino-4-(3-boronopropyl)-1-(2-(4-chlorophenyl)acetyl)pyrrolidine-3-carboxylic acid]
0.0001 to 0.25 µM	0.0001 to 0.25 µM	N[C@@]1(C(=O)O)CN(CCN2CCCC2)C[C@@H]1CCCB(O)O [Example 38, (3R,4S)-3-amino-4-(3-boronopropyl)-1-(2-(pyrrolidin-1-yl)ethyl)pyrrolidine-3-carboxylic acid]
0.0001 to 0.25 µM	0.0001 to 0.25 µM	N[C@@]1(C(=O)O)CN(C(=O)C2Cc3ccc(Cl)cc3CN2)C[C@@H]1CCCB(O)O (stereo partly drawn) [Example 56, (3R,4S)-3-amino-4-(3-boronopropyl)-1-(7-chloro-1,2,3,4-tetrahydroisoquinoline-3-carbonyl)pyrrolidine-3-carboxylic acid]
0.0001 to 0.25 µM	0.0001 to 0.25 µM	N[C@@]1(C(=O)O)C[C@@H](NCc2ccccc2)C[C@@H]1CCCB(O)O (racemic) [Example 62, (1S,2S,4S)-1-amino-4-(benzylamino)-2-(3-boronopropyl)cyclopentanecarboxylic acid]
0.0001 to 0.25 µM	0.0001 to 0.25 µM	NC1CCCCC1N1C[C@H](CCCB(O)O)[C@](N)(C(=O)O)C1 (stereo partly drawn) [Example 44, (3R,4S)-3-amino-1-(2-aminocyclohexyl)-4-(3-boronopropyl)pyrrolidine-3-carboxylic acid]
0.251 to 1 µM	1 to 2 µM	Nc1ccccc1S(=O)(=O)N1C[C@H](CCCB(O)O)[C@](N)(C(=O)O)C1 [Example 50, (3R,4S)-3-amino-1-(2-aminophenylsulfonyl)-4-(3-boronopropyl)pyrrolidine-3-carboxylic acid]
0.0001 to 0.25 µM	0.0001 to 0.25 µM	CN(C)[C@H]1C[C@H](CCCB(O)O)[C@](N)(C(=O)O)C1 (racemic) [Example 63, (1S,2S,4S)-1-amino-2-(3-boronopropyl)-4-(dimethylamino)cyclopentanecarboxylic acid]
0.251 to 1 µM	0.251 to 1 µM	COc1ccc(C(=O)N2C[C@H](CCCB(O)O)[C@](N)(C(=O)O)C2)cc1 [Example 47, (3R,4S)-3-amino-4-(3-boronopropyl)-1-(4-methoxybenzoyl)pyrrolidine-3-carboxylic acid]
0.0001 to 0.25 µM	0.0001 to 0.25 µM	NC(Cc1ccccc1)CN1C[C@H](CCCB(O)O)[C@](N)(C(=O)O)C1 (mixture of isomers) [Example 57, (3R,4S)-3-amino-1-(2-amino-3-phenylpropyl)-4-(3-boronopropyl)pyrrolidine-3-carboxylic acid]
0.251 to 1 µM	0.251 to 1 µM	N[C@@]1(C(=O)O)CN(C(=O)c2ccc(F)cc2)C[C@@H]1CCCB(O)O (racemic) [Example 46, (3R,4S)-3-amino-4-(3-boronopropyl)-1-(4-fluorobenzoyl)pyrrolidine-3-carboxylic acid]
0.0001 to 0.25 µM	0.0001 to 0.25 µM	N[C@@]1(C(=O)O)CN(CC2Cc3ccc(Cl)cc3CN2)C[C@@H]1CCCB(O)O (stereo partly drawn) [Example 49, (3R,4S)-3-amino-4-(3-boronopropyl)-1-((7-chloro-1,2,3,4-tetrahydroisoquinolin-3-yl)methyl)pyrrolidine-3-carboxylic acid]
